Experimental data as given in patent US4575508A, “2-Substituted 1-(3'-aminoalkyl)-1,2,3,4-tetrahydro-β-carbolines, and their use as antiarrhythmic agents” (BASF Aktiengesellschaft, priority 1982, dated 1986).
Read-outs that look alike come from different tables or passages of the source.

Experiments:
Format in all cases: in vivo, male Sprague-Dawley rats
[1] = system: aconitine-induced arrhythmia; assay: Aconitine-induced arrhythmia in rats, oral administration (antiarrhythmic activity); details: for ED50: Rattus norvegicus, po, 1 h, read-out: Aconitine-induced arrhythmia ED 50% (dose which prolongs the aconitine infusion duration by 50%); for times more effective than quinidine on aconitine-induced arrhythmia / R.A. (relative activity, based on quinidine = 1.00): rat, oral; for R.A. (relative activity, based on quinidine = 1.00): aconitine-induced arrhythmia; for antiarrhythmic action (in words): general statement
Experimental: (§1) To investigate the antiarrhythmic activity, the substances were administered orally to male Sprague-Dawley rats each weighing 200-250 g. 45 minutes later, the animals were anesthetized with sodium thiobutabarbital (100 mg/kg, administered intraperitoneally). Aconitine was used as the arrhythmogenic substance, and was infused intravenously 60 minutes after administration of the substance (dosage rate: 0.005 mg per kg per min.). […] The onset of these arrhythmias could be delayed by means of antiarrhythmics, the delay achieved being dose-dependent.
Linear relationships exist between the logarithms of the doses (mg/kg) of the test substances and the relative prolongation of the aconitine infusion duration (Δ%), from which relationships the dose which prolongs the infusion duration by 50% can be determined, as the ED 50%.
The known antiarrhythmic quinidine was used as a comparative substance.

[2] = Toxicity: dose at which first cardiotoxic or neurotoxic symptoms occur, rat, oral administration; details: in vivo
Experimental: as §1
(§2) For further characterization of the substances, the dose at which the first cardiotoxic symptoms (changes in the initial ECG) or neurotoxic symptoms (coordination disturbances, convulsions, etc.) occurred was determined from the decimal-geometric dosage progression (factor .cuberoot.10) used in the experiments.

rat = assay: as above
Experimental: as §1, §2

| Compound | ED50 [1] | selectivity ratio ([2]; po) | Toxicity Dose (dose after the application of which the first toxic symptoms are observed) (rat; in vivo, po) | times more effective than quinidine on aconitine-induced arrhythmia [1] | R.A. (relative activity, based on quinidine = 1.00) [1] | antiarrhythmic action (in words) [1] | selectivity ratio ([2]; oral, measure of the therapeutic index, read-out: Toxicity Q (quotient of the toxic dose and the antiarrhythmically effective dose, ED 50%)) | Toxicity Dose (dose after the application of which the first toxic symptoms are observed) (rat; oral, cardiotoxic or neurotoxic symptoms) |
| --- | --- | --- | --- | --- | --- | --- | --- | --- |
| C=C[C@H]1C[N@@]2CC[C@H]1C[C@@H]2[C@@H](O)c1ccnc2ccc(OC)cc12 [quinidine, reference compound] | 43.5 mg/kg | – | – | – | – | – | – | – |
| CC(=O)N1CCc2c([nH]c3ccccc23)C1CCCN(C)C (stereo not drawn) [Example 4, 1-(3'-Dimethylaminopropyl)-2-acetyl-1,2,3,4-tetrahydro-β-carboline] | 13.5 mg/kg | 16 | 215 mg/kg | 3 times | 3.22 | – | – | – |
| CCCCN(CCCC)CCCC1c2[nH]c3ccccc3c2CCN1C(C)=O (stereo not drawn) [Example 31, 1-[3'-(Di-n-butyl)-aminopropyl]-2-acetyl-1,2,3,4-tetrahydro-β-carboline] | 1.71 mg/kg | 13 | 21.5 mg/kg | – | 25.44 | – | – | – |
| CC(=O)N1CCc2c(n(C)c3ccccc23)C1CCCN(CC(C)C)CC(C)C (stereo not drawn) [Example 43, 1-[3'-(Di-2-methylpropyl)-aminopropyl]-2-acetyl-9-methyl-1,2,3,4-tetrahydro-β-carboline] | 0.803 mg/kg | 13 | 10 mg/kg | – | 54.17 | particularly active | – | – |
| CCCCNCCCC1c2[nH]c3ccccc3c2CCN1C(C)=O (stereo not drawn) [Example 28, 1-(3'-n-Butylaminopropyl)-2-acetyl-1,2,3,4-tetrahydro-β-carboline] | 12.4 mg/kg | 17 | 215 mg/kg | – | 3.51 | – | – | – |
| CCCN(CCCC1c2c(c3ccccc3n2C)CCN1C(C)=O)C(C)C (stereo not drawn) [Example 46, 1-[3'-(Isopropylpropyl)-aminopropyl]-2-acetyl-9-methyl-1,2,3,4-tetrahydro-β-carboline] | 0.732 mg/kg | – | – | 59 times | 59.43 | – | 14 | 4.64 mg/kg |
| CCC(C)N(CCCC1c2[nH]c3ccccc3c2CCN1C(C)=O)C(C)CC (stereo not drawn) [Example 33, 1-[3'-(Di-2-butyl)-aminopropyl]-2-acetyl-1,2,3,4-tetrahydro-β-carboline] | 1.57 mg/kg | 14 | 21.5 mg/kg | – | 27.71 | – | – | – |
| CC(=O)N1CCc2c([nH]c3ccccc23)C1CCCN1CCN(C)CC1 (stereo not drawn) [Example 21, 1-[3'-(4-Methylpiperazin-1-yl)-propyl]-2-acetyl-1,2,3,4-tetrahydro-β-carboline] | 14.6 mg/kg | 15 | 215 mg/kg | 3 times | 2.98 | – | – | – |
| CCn1c2c(c3ccccc31)CCN(C(C)=O)C2CCCN1CCN(C)CC1 (stereo not drawn) [Example 44, 1-[3'-(4-Methylpiperazin-1-yl)-propyl]-2-acetyl-9-ethyl-1,2,3,4-tetrahydro-β-carboline] | 9.21 mg/kg | 23 | 215 mg/kg | – | 4.72 | – | – | – |
| CCCN(CCC)CCCC1c2c(c3ccccc3n2C)CCN1C(C)=O (stereo not drawn) [Example 42, 1-(3'-Dipropylaminopropyl)-2-acetyl-9-methyl-1,2,3,4-tetrahydro-β-carboline] | 0.842 mg/kg | 12 | 10 mg/kg | – | 51.66 | particularly active | – | – |
